Experimental data published in publication PMC10606765, “Study of the Structural Chemistry of the Inclusion Complexation of 4-Phenylbutyrate and Related Compounds with Cyclodextrins in Solution: Differences in Inclusion Mode with Cavity Size Dependency” (International Journal of Molecular Sciences, 2023).
Where two headings read alike, the source gives them in different places. Marks after values point to notes of the source that are not given here.

Legend:
[1] = parameters: method as in PMID 36548517; conditions: phase solubility, 0.1 M phosphate buffer (pH 2.1), 25 °C, mean ± SD (n = 3); cited from earlier work
[2] = parameters: method as in PMID 36548517; conditions: proton Y monitored, 0.1 M sodium borate/D2O, 25 °C, total concentration 1.0 × 10^−2 M; cited from earlier work
[3] = parameters: method as in PMID 36548517; conditions: 0.1 M phosphate buffer (pH 2.1), 25 °C, cited from earlier work
[4] = parameters: method as in PMID 36548517; conditions: phase solubility, 0.1 M phosphate buffer (pH 2.1), 25 °C, mean ± SD (n = 3); cited from earlier work; remark: listed apart in the source
[5] = Phase solubility study with γCD; type: physicochemical; conditions: 0.1 M phosphate buffer (pH 2.1), 25 °C, mean ± SD (n = 3)
Description: (§1) Phase solubility studies were conducted according to the method described by Higuchi and Connors. Briefly, 1 mL of CD solutions (0 to 14 mM, pH 2.1) were added to excess amounts of PB or related compounds placed in screw cap tubes. The resulting samples were shaken for 72 h at 25 °C and 120 rpm (Multi Shaker MMS-3020 in a temperature control chamber FMC-1000; Eyela Co., Ltd., Tokyo, Japan). The resulting suspensions were filtered through 0.2 µm membrane filters (Minisart RC 4, Sartorius Stedim Lab Ltd., Stonehouse, UK) and diluted appropriately. The solubility of PB or related compounds was determined by HPLC, and the data were used to construct phase solubility diagrams. The guest/host ratios for the systems showing BS-type solubility diagrams were estimated as the quotient of the amount of undissolved guest at the start of the plateau region and the CD concentration range corresponding to the plateau region.
(§2) HPLC measurements were performed according to a previous report using a JASCO HPLC system (Jasco Corp., Tokyo, Japan). A YMC-PACK ODS AM 303 column (5 µm, 250 mm × 4.6 mm, YMC Co., Kyoto, Japan) was used as the stationary phase and was maintained at 40 °C. […] For PC and PH, the elution program used was 0–7 min (50–100% B), 7–10 min (100% B), and 10–15 min (100–50% B) at a constant flow rate of 1 mL/min.

[6] = Phase solubility study with αCD; type: physicochemical; conditions: 0.1 M phosphate buffer (pH 2.1), 25 °C; for Apparent stability constant K αCD / Guest/Host Ratio αCD: phase solubility, mean ± SD (n = 3)
Description: as §1, §2

[7] = 1H NMR continuous variation plot with αCD; type: binding; conditions: proton Y monitored, 0.1 M sodium borate/D2O, 25 °C, total concentration 1.0 × 10^−2 M
Description: ^1H NMR spectra were obtained using a JEOL-A500 spectrometer (Tokyo, Japan) operating at 500 MHz in 5 mm sample tubes at 25 °C using D2O/0.1 M sodium borate (pH meter reading of 9.4) as solvent. The resonance at 4.68 to 4.75 ppm, due to residual solvents (H2O and HOD), was used as an internal reference. Chemical shifts are given as parts per million (ppm), with an accuracy of ±0.001. No external reference was used to avoid possible interactions with the CDs. The ^1H NMR signals of the guests (PB and related compounds) were assigned by 2D ^1H-^1H correlation spectroscopy (COSY), whereas those of the CDs were assigned according to a previous report. The complex stoichiometries were determined by the continuous variation method, where the total concentrations of CD and guest were kept constant at 1.0 × 10^−2 M. In addition, the changes in the chemical shift of CDs and the guest protons in their equimolar systems (5.0 × 10^−3 M) were monitored. […] The stability constant values of the complexes formed by PH were determined from the curves. Two-dimensional ROESY NMR experiments were performed for the CD-PH systems in the phase-sensitive mode using the same spectrometer. Each spectrum consisted of a matrix of F2 by F1 covering a sweep width of 5000 Hz with 36 scans. The spin-lock mixing time was 800 ms, with a relaxation delay of 4 s, and a 90° pulse width of 11.8 µs. The concentration of guest and host were 2.5 × 10^−2 M/1.0 × 10^−1 M (PH/αCD), 1.5 × 10^−2 M/2.5 × 10^−2 M (PH/βCD), and 2.5 × 10^−2 M/2.5 × 10^−2 M (PH/γCD). The stability constants (K1:1) of the PH–CD complexes were estimated by analyzing the first-order dependences of the chemical shift change of PH protons on CD concentration using Equation (2):(2) δobs=δ0+δ1K1:1CDf/1+K1:1CDf where δ0 and δobs are chemical shifts of PH protons without or with CD, respectively, and δ1 is the chemical shift of PH protons in the 1:1 complex.

[8] = Phase solubility study with βCD; type: physicochemical; conditions: 0.1 M phosphate buffer (pH 2.1), 25 °C, mean ± SD (n = 3)
Description: as §1, §2

[9] = 1H NMR molar ratio titration with γCD (stability constant); type: binding
Description: (§3) ^1H NMR spectra were obtained using a JEOL-A500 spectrometer (Tokyo, Japan) operating at 500 MHz in 5 mm sample tubes at 25 °C using D2O/0.1 M sodium borate (pH meter reading of 9.4) as solvent. The resonance at 4.68 to 4.75 ppm, due to residual solvents (H2O and HOD), was used as an internal reference. Chemical shifts are given as parts per million (ppm), with an accuracy of ±0.001. No external reference was used to avoid possible interactions with the CDs. The ^1H NMR signals of the guests (PB and related compounds) were assigned by 2D ^1H-^1H correlation spectroscopy (COSY), whereas those of the CDs were assigned according to a previous report. The complex stoichiometries were determined by the continuous variation method, where the total concentrations of CD and guest were kept constant at 1.0 × 10^−2 M. In addition, the changes in the chemical shift of CDs and the guest protons in their equimolar systems (5.0 × 10^−3 M) were monitored. […] The stability constant values of the complexes formed by PH were determined from the curves. […]
(§4) The equation was analyzed by the iteration method since the concentration of free CD ([CD]f) is unknown unless K1:1 had been determined beforehand. […] Therefore, by setting [CD]f = [CD]t as a first approximation, Equation (2) was analyzed by a nonlinear least-squares method, and, in turn, [CD]f values were calculated using the obtained apparent K1:1 value. […]

[10] = 1H NMR molar ratio titration with αCD (stability constant); type: binding
Description: as §3, §4

[11] = 1H NMR molar ratio titration with βCD (stability constant); type: binding
Description: as §3, §4

[12] = NMR value (pH 9.4) vs phase solubility value (pH 2.1)

| Compound | Apparent stability constant K γCD [5] [M⁻¹] | Guest/Host Ratio γCD [5] | Phase solubility diagram type with αCD [6] | Apparent stability constant K αCD [6] [M⁻¹] | Guest/Host Ratio αCD [6] | Maximum of continuous variation plot, guest/(guest + host) mole fraction, αCD [7] | Apparent stability constant K βCD [8] [M⁻¹] | Guest/Host Ratio βCD [8] | further results |
| --- | --- | --- | --- | --- | --- | --- | --- | --- | --- |
| O=C(O)CCCc1ccccc1 [PB, 4-phenylbutyrate] | – | – | – | – | – | – | – | – | Apparent stability constant K βCD [1]: 178 ± 23 ^a M^−1; Guest/Host Ratio βCD [1]: 1.02 ± 0.05 ^b; Maximum of continuous variation plot, guest/(guest + host) mole fraction, αCD [2]: 0.5; Phase solubility diagram type with αCD [3]: AL-type; Apparent stability constant K αCD ([3]; phase solubility, mean ± SD (n = 3)): 481 ± 26 ^a M^−1; Apparent stability constant K γCD [4]: 119 ± 9 ^a M^−1; Guest/Host Ratio γCD [4]: 2.14 ± 0.08 ^b |
| O=C(O)CCCCCc1ccccc1 [PC, 6-phenylcaproic acid] | 499 ± 59 | 2.30 ± 0.03 | BS-type | 1185 ± 35 | 0.55 ± 0.03 | 0.35 | 2283 ± 134 | 1.08 ± 0.01 | – |
| O=C(O)CCCCCCc1ccccc1 [PH, 7-phenylheptanoic acid] | 1213 ± 18 | 2.20 ± 0.01 | BS-type | 2500 ± 50 | 0.44 ± 0.01 | 0.35 | 7458 ± 52 | 1.02 ± 0.01 | Reduction of stability constant of γCD complex compared to value at pH 2.1 [9, 12]: 3 fold; Stability constant K1:1 of γCD complex from 1H NMR chemical shift change ([9]; determined from protons C and X, 0.1 M sodium borate/D2O (pH 9.4), 25 °C): 370 ± 6 M⁻¹; Reduction of stability constant of αCD complex compared to value at pH 2.1 [10, 12]: 20 fold; Stability constant K1:1 of αCD complex from 1H NMR chemical shift change ([10]; determined from protons A and Y, 0.1 M sodium borate/D2O (pH 9.4), 25 °C): 123 ± 2 M⁻¹; Reduction of stability constant of βCD complex compared to value at pH 2.1 [11, 12]: 3 fold; Stability constant K1:1 of βCD complex from 1H NMR chemical shift change ([11]; determined from protons A and X, 0.1 M sodium borate/D2O (pH 9.4), 25 °C): 2513 ± 469 M⁻¹ |
| O=C(O)CCc1ccccc1 [PP, 3-phenylpropionic acid] | 34 ± 1 | – | AL-type | 226 ± 5 | – | – | 74 ± 3 | – | – |
| O=C(O)CCCCc1ccccc1 [PV, 5-phenylvaleric acid] | 223 ± 7 | 2.21 ± 0.03 | AL-type | 639 ± 20 | – | 0.35 | 838 ± 52 | 0.99 ± 0.05 | – |
